Patent US11266654B2 (AI Therapeutics, Inc., priority 2014, dated 2022)

Assays:
U937 = U937 (WO 2006/128129); cited from earlier work
[1] = system: 122 human cancer cell lines; assay: Cancer cell line sensitivity screen (cell viability); assay type: cell-based; conditions: non-Hodgkin's Lymphoma cell lines; sensitive if IC50 less than 500 nM
Source text: (§1) 35 cell lines were identified as sensitive to apilimod-induced cytotoxicity.
The most sensitive of those tested were non-Hodgkin's Lymphoma (NHL) cell lines. […] NHL represents a diverse group of hematopoietic malignancies that vary in severity, with subtypes ranging from slow growing to aggressive. Subtypes of NHL include diffuse large B cell lymphoma (DLBCL), Burkitt's lymphoma, mantle lymphoma, and follicular B cell lymphoma. DLBCL is divided into two subtypes, GCB and ABC, based on gene expression and cell of origin. The GCB are germinal center B cell type, arising from normal germinal center B cells, and the ABC are activated B cell type, arising from post-germinal center B cells in the process of differentiating into plasma cells.

[2] = system: diffuse large B cell lymphoma cells; assay: Apotox-Glo Triplex assay (viability, apoptosis, necrosis); assay type: cell-based; conditions: 48 hours
Protocol: Apoptosis was quantified and distinguished from necrosis using the Apotox-Glo Triplex assay (Promega, Inc.) according to the manufacturer's instructions. In this assay, viability, apoptosis, and necrosis are assessed simultaneously using three different markers (GF-AFC, Caspase-3/7, and bis-AAF-R110, respectively).

[3] = system: representative cancer cell line; assay: Vacuolization of live cells; assay type: cell-based; conditions: 500 nM, 24 h
THP-1 = THP-1 (WO 2006/128129); cited from earlier work
Jurkat = Jurkat (WO 2006/128129); cited from earlier work
HELA = HELA (WO 2006/128129); cited from earlier work
Normal lung fibroblasts = assay: Cytotoxicity on normal cells; assay type: cell-based; conditions: concentrations as high as 10 micromolar
Source text: as §1

IL-12/IL-23 synthesis = conditions: psoriasis, oral administration, open label (Wada et al. 2012); cited from earlier work
[4] = active Crohn's disease, placebo-controlled (Sands et al. 2010); cited from earlier work
H4 neuroglioma cell line = assay: Cyto-ID Autophagy detection; assay type: cell-based, Human; conditions: 72 hours of treatment
Source text: Autophagy was quantified using the Cyto-ID Autophagy detection kit (Enzo) according to manufacturer's directions.

SUDHL-4 cells = assay: Screen of 93-drug library with and without apilimod (CellTiter-Glo 72 h); assay type: cell-based; conditions: Homo sapiens, SU-DHL-4
Source text: A manually curated library of 93 drugs including both FDA approved and unapproved drugs was used in the screen.

[5] = system: peripheral blood mononuclear cells; conditions: peripheral blood mononuclear cells (Wada et al. 2007); cited from earlier work

In the case of `Cc1cccc(/C=N/Nc2cc(N3CCOCC3)nc(OCCc3ccccn3)n2)c1` [apilimod], the cytotoxicity (U937) is given as “not cytotoxic”, the “percentage of NHL cell lines tested that were sensitive” value [1] is given as “over 50%” and the “apoptosis (Caspase-3/7 marker)” value [2] is given as “increased apoptosis”. For the same compound, the vacuolization [3] was “induces vacuolization”, the cytotoxicity (THP-1) was “not cytotoxic” and the cytotoxicity (Jurkat) was “not cytotoxic”. For the same compound, the cytotoxicity (HELA) was “not cytotoxic”, the apilimod-induced cytotoxicity (Normal lung fibroblasts) was “insensitive” and the “immunomodulatory activity in patients” value (IL-12/IL-23 synthesis) was “showed immunomodulatory activity”. The clinical efficacy [4] was “did not demonstrate efficacy over placebo”, the “autophagy (autophagic vacuoles)” value (H4 neuroglioma cell line) was “induced autophagy in a dose-dependent manner” and the IC20 (SUDHL-4 cells) was 10 nM. The cytotoxicity [5] was “not cytotoxic”.
